Legend:
ERK1/2 = assay: Nuclear translocation of ERK (fluorescence microscopy, subcellular fractionation); type: cell-based
Protocol: FIGS. 1A-1F illustrate that EPE peptide prevents nuclear translocation of ERK1. A2352 (A), MDA-MB-231 (B) HeLa (C), T47D (D), NHEM-AD (E) and HB2 (F) cells were serum-starved, pretreated with the EPE peptides, Scr peptide (10 μM, 2 h) DMSO and then either stimulated with TPA (250 nM, 15 min) or left untreated (NS) as control. The cells were stained with αgERK1/2 Ab and DAPI. Scale-bar—15 μm.
FIGS. 12A-12D illustrate that the EPE peptide inhibits the nuclear translocation of ERK1/2. Serum-starved (0.1% FCS, 16 hr) A2352 (FIG. 12A), HeLa (FIG. 12B), MDA-MB-231 (FIG. 12C), or LOXMVI (FIG. 12D) cells were pretreated with EPE or scrambled peptides (10 μM, 2 hr). Cells were then stimulated with EGF (50 ng/ml) or left untreated, and then harvested. Subcellular fractionation of cytoplasm and nucleus was performed as below, and fractions were subjected to Western blot analysis with the indicated Abs. Subcellular Fractionation was performed as follows: Harvested cells were resuspended in 200 μl of buffer H containing 0.1% Nonidet P-40. The lysates were mixed vigorously and centrifuged immediately to yield supernatants containing the cytosolic fraction. Nuclear proteins were extracted by resuspending the nuclear pellets in 200 μl of extraction buffer, waiting on ice for 5 min, brief sonication (2×5 sec, 40 W, 4° C.), vigorous mixing, and centrifugation. Both cytosolic and nuclear fractions were subjected to Western blotting.
A2185 (A) and A2352 (B) B-Raf melanoma cells were serum-starved (16 hours, 0.1% FBS), and then either pretreated with the EPE peptides (10 μM, 2 hours) or left untreated. Then, the cells were stimulated with TPA ([…], 20 min), or left untreated (NS) DMSO as control. The cells were stained with either anti ERK1 (Santa Cruz, C16) or anti ERK2 (C14, Santa Cruz) Abs and DAPI. (C) Quantification of the number of cell in which ERK1 or ERK2 were mostly (>80%) localized in the nucleus was performed by counting 5 fields containing 100 cells per field.
FIGS. 15A-15B illustrate that the EPE peptide prevents nuclear accumulation/translocation of ERK1/2 in PLX4032-resistant melanoma cells. A2352 that were made resistant to PLX4032 (as described under Material and Methods) and A4132 PLX4032 resistant melanoma cell from patient were serum-starved (16 hours, 0.1%), pretreated with the EPE or scrambled peptide (10 μM, 2 hours) and then either stimulated with TPA (100 nM, 20 min) or left untreated (NT) as control. The cells were stained with αgERK1/2 Ab and DAPI.
Cells were fixed in 3% paraformaldehyde in PBS (20 min, 23° C.), and then permeabilized and blocked with 0.2% Triton X-100 in PBS-BSA (2%) for 20 min at 23° C. The fixed cells were sequentially incubated with appropriated Abs, (diluted in 10 μg/ml BSA/PBS) for 1 h, followed by either Cy-2 or rhodamine-conjugated secondary Abs and DAPI (diluted in BSA/PBS, 1:200) for 1 h. To follow the subcellular localization of the biotin-conjugated peptides, cells were incubated with Avidin-FITC (diluted in BSA/PBS 1:400) and DAPI. Slides were analyzed and photographed by a fluorescent microscope (Nikon, Japan, 600× magnification).

A2352 xenografts = assay: Tumor disappearance and recurrence in A2352 xenografts, EPE peptide compared with PLX4032; type: in vivo, SCID mice
Protocol: (§1) FIGS. 6A-6B illustrate that the EPE peptide prevents the growth of human tumor xenografts. CD-1 nude mice were inoculated with MDA-MB-231, LOXIMVI and HCT-116 cells, and SKID mice were inoculated with A2352 cells. Upon tumors establishment, the mice were treated intravenously with the DMSO as well as EPE or Scr peptides in the indicated doses, 3 times a week. The results are averages of 5 mice in each experimental group. The X, Y, Z dimensions of the tumors were measured with a caliper, and the volume was calculated accordingly. The significance of all experiments was at least P<0.001. (B) The EPE peptide prevents tumor recurrence on melanoma xenograft. SCID mice were inoculated with A2352 cells. Upon establishment of tumors mice were treated intravenously with 15 mg/kg EPE peptide (n=7) or intraperitonealy with 15 mg/kg PLX4032 (n=5), at the indicated dose 3 times a week. Tumor size was recorded at the same time using a caliper. Following 3 weeks of treatment, mice were kept for further evaluation monitoring for any tumor recurrence of the effective treated melanoma xenografts. Experiment was concluded 110 days post inoculation (11 weeks after the last treatment) and the overall state of the animals was evaluated. sac=sacrificed, recur=recurrence, met=metastasis.
(§2) Tumor dimensions were measured with a digital sliding caliper.

HCT-116 xenograft = assay: Tumor xenograft growth; type: in vivo, CD-1 nude mice; conditions: i.v. tail vein, 3 times a week
Protocol: as §1, §2

MDA-MB-231 xenograft = assay: Tumor xenograft growth; type: in vivo, CD-1 nude mice; conditions: i.v. tail vein, 3 times a week
Protocol: as §1, §2

LOXIMVI xenograft = assay: Tumor xenograft growth; type: in vivo, CD-1 nude mice; conditions: i.v. tail vein, 3 times a week
Protocol: as §1, §2

**Q.** For “GQLNHILGILGEPEQED (Synthetic peptide (EPE)) [EPE peptide, NTS-derived peptide with phosphomimetic EPE motif]”, which “inhibitory effect on nuclear translocation of ERK, compared among SPS, EPE and APA peptides” value (ERK1/2) is on record?
**A.** stronger than that of the other two

**Q.** What about the “inhibition of ERK1 versus ERK2 translocation” value (ERK1/2; A2185 and A2352 B-Raf melanoma cells) of the same sequence?
**A.** No significant differences between the inhibition of ERK1 and ERK2

**Q.** What about the “nuclear translocation of ERK1/2 by subcellular fractionation” value (ERK1/2; A2352, HeLa, MDA-MB-231, LOXMVI, 10 μM, 2 hr, EGF) of the same sequence?
**A.** same trend of inhibition

**Q.** What about the “amount of nuclear ERK1/2 in resistant melanoma cells” value (ERK1/2; PLX4032-resistant A2352 and A4132 cells, 10 μM, 2 hours, TPA) of the same sequence?
**A.** reduced the amount of nuclear ERK1/2 both before and after stimulation

**Q.** What about the “time to complete disappearance of tumors” value (A2352 xenografts; 15 mg/kg, 3 times a week) of the same sequence?
**A.** 10 to 23 days

**Q.** What about the tumor disappearance (A2352 xenografts; 15 mg/kg, 3 times a week, 3 weeks, EPE i.v. (n=7), PLX4032 i.p. (n=5), initial ~80 mm3 tumors) of the same sequence?
**A.** complete disappearance of the tumors of all mice

**Q.** And the “overall state of animals after treatment” value (A2352 xenografts; follow up after last treatment, incl. 5 other animals in a repeating experiment)?
**A.** remained healthy up to 11 weeks after treatment

**Q.** What about the “mice with tumor recurrence” value (A2352 xenografts; follow up for up to 11 weeks after last treatment) of the same sequence?
**A.** None

**Q.** What about the “growth of tumor xenograft” value (HCT-116 xenograft) of the same sequence?
**A.** to some extent

**Q.** And the “growth of tumor xenograft” value (MDA-MB-231 xenograft)?
**A.** dose dependent inhibition of the growth

**Q.** What about the “growth of tumor xenograft” value (LOXIMVI xenograft) of the same sequence?
**A.** dose dependent inhibition of the growth

Source: patent publication US10240133B2, “ERK-derived peptides and uses thereof” (Yeda Research and Development Co. Ltd., priority 2013, dated 2019)
